Test results taken from patent US20130112218A1, “USE OF ELLAGIC ACID AS AN ANTI-DANDRUFF AGENT” (priority 2010, published 2013).

Key:
[1] = test system: yeasts of the Malassezia genus; assay: Test of effectiveness in an aqueous-alcoholic gel by leave-in application; assay type: in vivo; details: ellagic acid 0.5% by weight in aqueous-alcoholic gel A, two applications per week, after one week of treatment, 25 individuals with dandruff, corneodisc count, placebo 29%
Method: The aqueous-alcoholic gel for leave-in use A according to the invention was prepared according to the following table. The amounts are indicated as percent by weight of active material (A.M.) relative to the total weight of the composition. The study was carried out on a group of 25 individuals who had scalps with dandruff displaying an excessive proliferation of yeasts of the Malassezia genus. After two weeks of neutral shampoo, the individuals were treated with gel A of the invention or with an equal amount of a placebo comparative composition (identical composition without ellagic acid), at a rate of two applications per week. The yeasts per unit surface area were counted using a corneodisc sample of squamae.

[2] = test system: scalps with dandruff displaying an excessive proliferation of yeasts of the Malassezia genus; assay: Test of effectiveness in a shampoo; assay type: in vivo; details: ellagic acid 1% by weight in shampoo B, rinsed out, twice a week for four weeks; 21 individuals with dandruff
Method: The shampoo B according to the invention was prepared according to the following table. The amounts are indicated as percent by weight of active material (A.M.) relative to the total weight of the composition. The study was carried out on a group of 21 individuals who had scalps with dandruff displaying an excessive proliferation of yeasts of the Malassezia genus. After two weeks of neutral shampoo, the shampoo composition B according to the invention was applied to the scalp for each individual. The composition was then rinsed out with water. This anti-dandruff treatment method was repeated twice a week for four weeks.

## O=c1oc2c(O)c(O)cc3c(=O)oc4c(O)c(O)cc1c4c23 [ellagic acid, 2,3,7,8-tetrahydroxy(1)benzopyrano(5,4,3-cde)(1)benzopyran-5,10-dione]
[1]
  reduction in the number of Malassezia yeasts present on the scalp: 56%
[2]
  anti-dandruff effectiveness: clear anti-dandruff effectiveness
